Experimental data published in patent US20250017927A1, “PHARMACEUTICAL COMPOSITION AND USE THEREOF” (SHANGHAI ALLIST PHARMACEUTICALS CO., LTD., priority 2021, published 2025).
pIC50: −log10 of the molar value.

Assays:
Ba/F3 EGFR L861Q = assay: Proliferation inhibition, CellTiter Glo, Ba/F3 EGFR L861Q; format: cell-based, mouse; details: for pIC50: Mus musculus, Ba/F3 EGFR L861Q stably transfected cells, 72 hours
Source text: (§1) The proliferation inhibition activity of the compound (furmonertinib mesilate) on four cells of Ba/F3 EGFR G719S, Ba/F3 EGFR G724S, Ba/F3 EGFR S768I, and Ba/F3 EGFR L861Q stably expressing EGFR rare mutation proteins, one cell of Ba/F3 EGFR G719S/T263P stably expressing EGFR double mutation proteins, and three cells of Ba/F3 ERBB2 A775_G776insYVMA, Ba/F3 ERBB2 V777_G778insGC, and Ba/F3 ERBB2 P780_Y781insGSP stably expressing different ERBB2 exon 20 insertion mutation proteins in mouse pro-B cells Ba/F3 in vitro was determined by the CellTiter Glo method.
(§2) Cell source: Ba/F3 EGFR G719S, Ba/F3 EGFR G724S, Ba/F3 EGFR S768I, Ba/F3 EGFR L861Q, Ba/F3 EGFR G719S/T263P, Ba/F3 ERBB2 A775_G776insYVMA, Ba/F3 ERBB2 V777_G778insGC, Ba/F3 ERBB2 P780_Y781insGSP cells were provided by KYinno Biotechnology (Beijing) Co., Ltd.
(§3) Ba/F3 EGFR G719S, Ba/F3 EGFR G724S, Ba/F3 EGFR S768I, Ba/F3 EGFR L861Q, Ba/F3 EGFR G719S/T263P, Ba/F3 ERBB2 A775_G776insYVMA, Ba/F3 ERBB2 V777_G778insGC, Ba/F3 ERBB2 P780_Y781insGSP cells were cultivated in RPMI1640 complete culture medium containing 10% fetal bovine serum. […]
(§4) The CellTiter-Glo reagent (a luciferase ATP bioluminescence detection reagent, commercially available from Promega) was thawed, the 96-well plates inoculated with the cells were taken out from the CO2 constant temperature incubator, and equilibrated to room temperature (about 30 minutes), 100 μL CellTiter-Glo reagent was added to each well, the cells were lyzed by shaking on an orbital shaker for 5 minutes, […] at room temperature for 20 minutes to wait for the luminescence intensity to stabilize, then the luminescence intensity (Lum) was determined with a microplate reader. The cell survival rate at each concentration of the compound was calculated.
(§5) The data were analyzed using GraphPad Prism 7.0 software, fitted with nonlinear S-curve regression to give a dose-effect curve, and IC50 values were calculated therefrom, as shown in Table 1.

Ba/F3 EGFR G719S = assay: Proliferation inhibition, CellTiter Glo, Ba/F3 EGFR G719S; format: cell-based, mouse; details: for pIC50: Mus musculus, Ba/F3 EGFR G719S stably transfected cells, 72 hours
Source text: as §1, §2, §3, §4, §5

[1] = tested on: Ba/F3 ERBB2 V777_G778insGC; assay: Proliferation inhibition, CellTiter Glo, Ba/F3 ERBB2 V777_G778insGC; format: cell-based, mouse; details: for pIC50: Mus musculus, BaF3, Ba/F3 ERBB2 V777_G778insGC stably transfected cells, 72 hours
Source text: as §1, §2, §3, §4, §5

Ba/F3 EGFR S768I = assay: Proliferation inhibition, CellTiter Glo, Ba/F3 EGFR S768I; format: cell-based, mouse; details: for pIC50: Mus musculus, Ba/F3 EGFR S768I stably transfected cells, 72 hours
Source text: as §1, §2, §3, §4, §5

Ba/F3 EGFR G724S = assay: Proliferation inhibition, CellTiter Glo, Ba/F3 EGFR G724S; format: cell-based, mouse; details: for pIC50: Mus musculus, Ba/F3 EGFR G724S stably transfected cells, 72 hours
Source text: as §1, §2, §3, §4, §5

[2] = tested on: Ba/F3 ERBB2 A775_G776insYVMA; assay: Proliferation inhibition, CellTiter Glo, Ba/F3 ERBB2 A775_G776insYVMA; format: cell-based, mouse; details: for pIC50: Mus musculus, BaF3, Ba/F3 ERBB2 A775_G776insYVMA stably transfected cells, 72 hours
Source text: as §1, §2, §3, §4, §5

[3] = tested on: Ba/F3 ERBB2 P780_Y781insGSP; assay: Proliferation inhibition, CellTiter Glo, Ba/F3 ERBB2 P780_Y781insGSP; format: cell-based, mouse; details: for pIC50: Mus musculus, BaF3, Ba/F3 ERBB2 P780_Y781insGSP stably transfected cells, 72 hours
Source text: as §1, §2, §3, §4, §5

Ba/F3 EGFR G719S/T263P = assay: Proliferation inhibition, CellTiter Glo, Ba/F3 EGFR G719S/T263P; format: cell-based, mouse; details: for pIC50: Mus musculus, Ba/F3 EGFR G719S/T263P stably transfected cells, 72 hours
Source text: as §1, §2, §3, §4, §5

[4] = tested on: Ba/F3 ERBB2 A775_G776insYVMA subcutaneous xenograft; assay: Anti-tumor effect in Ba/F3 ERBB2 A775_G776insYVMA CDX tumor model; details: 30 mg/kg oral once per day for two weeks
Source text: Experimental animals: BALB/c nude mice, female, 8-9 weeks (mouse week-old when tumor cells were inoculated), and weighing 13.7-17.7 g, purchased from the Shanghai branch of Beijing Vital River Laboratory Animal Technology Co., Ltd.
Animal modeling and random grouping: Ba/F3 ERBB2 A775_G776insYVMA cells were cultivated, amplified to two T175 cm^2 culture flasks, cells were collected, and resuspended and counted in serum-free medium DMEM with the addition of a matrix gel at 1:1, and inoculated at 2×10^6 cells/0.1 mL in Balb/c nude mouse right front scapular subcutaneous. When the average tumor volume was about 160 mm^3, the animals were randomly grouped into three experiment groups according to the tumor size. Each group contained 6 mice. The grouping day was defined as Day 0, i.e., DO.
The experimental scheme: BALB/c nude mice were subcutaneously inoculated with Ba/F3 ERBB2 A775_G776insYVMA cells, and a cell line heterograft tumor model was established. The experiment was divided into 30 mg/kg group of AZD9291, 30 mg/kg group of furmonertinib mesilate and a vehicle control group, wherein each group contained 6 animals, orally administered with the administration volume of 10 uL/g, and the vehicle control group was administered with the same amount of vehicle, the administration was carried out once per day and lasted for two weeks. During the whole experiment, the body weight and the tumor sizes of the mice were measured twice each week, and whether or not the presence of toxic reactions was observed.
Tumor Volume (TV) was calculated by: TV=½×a×b×b, where a and b represented the length and the width of tumor, respectively.

[5] = tested on: EGFR T790M positive advanced non-small cell lung cancer; details: oral 80 mg daily dose, patients with progressive disease after prior systematic anti-tumor therapy; cited from earlier work
[6] = tested on: Ba/F3 ERBB2 V777_G778insGC xenograft; assay: Anti-tumor effect in Ba/F3 ERBB2 V777_G778insGC (KC-1410) cell xenograft model; format: in vivo; details: for anti-tumor activity: B-NDG mice
Source text: This study was used for evaluate the anti-tumor efficacy of three compounds alone in the female (B-NDG) immune deficiency mice bearing tumors of Ba/F3 ERBB2 V777_G778insGC engineered cells.
Experimental animals: B-NDG mice, female, 6-8 weeks, and weighing 18-20 g.
Animal modeling and random grouping: Ba/F3 ERBB2 V777_G778insGC cells were cultivated, cells were collected, and re-suspended and counted in serum-free medium, the re-suspended cells with the addition of a matrigel at 1:1 were subcutaneous inoculated at 1×10^6 cells/0.1 mL in B-NDG mice. When the average tumor volume was about 80-120 mm^3, the animals were randomly grouped into four experiment groups according to the tumor size. Each group contained 12 mice.
The experimental scheme: B-NDG mice were subcutaneously inoculated with Ba/F3 ERBB2 V777_G778insGC cells to establish a cell-line-derived xenograft model.
The curves for the tumor volume change of four experimental groups were shown in FIG. 3, and the curves for the body weight change of four experimental groups were shown in FIG. 4.

[7] = orally once per day, 20 mg-240 mg; cited from earlier work

Compound `C=CC(=O)Nc1cc(Nc2nccc(-c3cn(C)c4ccccc34)n2)c(OC)cc1N(C)CCN(C)C` [AZD9291, reference compound] has a pIC50 (Ba/F3 EGFR L861Q) of 7.39, a pIC50 (Ba/F3 EGFR G719S) of 7.17 and a pIC50 [1] of 7.11. For the same compound, the pIC50 (Ba/F3 EGFR S768I) was 6.86, the pIC50 (Ba/F3 EGFR G724S) was 6.86 and the pIC50 [2] was 6.31. The pIC50 [3] was 7.02 and the pIC50 (Ba/F3 EGFR G719S/T263P) was 6.72.

With `C=CC(=O)Nc1cc(Nc2nccc(-c3cn(C)c4ccccc34)n2)c(OCC(F)(F)F)nc1N(C)CCN(C)C` [furmonertinib mesilate, N-{2-{[2-(dimethylamino)ethyl](methyl)amino}-6-(2,2,2-trifluoroethoxy)-5-{[4-(1-methyl-1H-indol-3-yl)pyrimidin-2-yl]amino}pyridin-3-yl}acrylamide] the proliferation inhibition activity (Ba/F3 EGFR L861Q; Ba/F3 EGFR L861Q, result in words) was “good proliferation inhibition activity”, the pIC50 (Ba/F3 EGFR L861Q) was 7.89 and the “effect on the body weight of nude mice” value [4] was “less effect on the body weight”. The safety [4] was “better safety”, the anti-tumor effect ([4]; BALB/c female nude mice) was “good anti-tumor effect” and the proliferation inhibition activity (Ba/F3 EGFR G719S; Ba/F3 EGFR G719S, result in words) was “good proliferation inhibition activity”. For the same compound, the pIC50 (Ba/F3 EGFR G719S) was 7.72, the proliferation inhibition activity ([1]; Ba/F3 ERBB2 V777_G778insGC, result in words) was “good proliferation inhibition activity” and the pIC50 [1] was 7.60. For the same compound, the proliferation inhibition activity (Ba/F3 EGFR S768I; Ba/F3 EGFR S768I, result in words) was “good proliferation inhibition activity”, the pIC50 (Ba/F3 EGFR S768I) was 7.48 and the proliferation inhibition activity (Ba/F3 EGFR G724S; Ba/F3 EGFR G724S, result in words) was “good proliferation inhibition activity”. The pIC50 (Ba/F3 EGFR G724S) was 7.46, the proliferation inhibition activity ([2]; Ba/F3 ERBB2 A775_G776insYVMA, result in words) was “good proliferation inhibition activity” and the pIC50 [2] was 6.93. For the same compound, the proliferation inhibition activity ([3]; Ba/F3 ERBB2 P780_Y781insGSP, result in words) was “good proliferation inhibition activity”, the pIC50 [3] was 7.48 and the anti-tumor effect [5] was “relatively good anti-tumor effect”. For the same compound, the anti-tumor activity ([6]; 15 mg/kg oral once per day for two weeks) was “moderate anti-tumor activity”, the anti-tumor activity ([6]; 30 mg/kg oral once per day for two weeks) was “extremely significant anti-tumor activity” and the anti-tumor activity ([6]; 50 mg/kg oral once per day for two weeks) was “extremely significant anti-tumor activity”. The “effect on the body weight of mice” value ([6]; 15, 30 and 50 mg/kg groups) was “little effect on the body weight”, the safety ([6]; 15, 30 and 50 mg/kg groups) was “good safety” and the “adverse events of subjects” value [7] was “mild or moderate”. The dose-limiting toxicity [7] was “does not occur”, the dose-related toxic reaction [7] was “does not occur” and the tolerance and safety [7] was “good”. For the same compound, the proliferation inhibition activity (Ba/F3 EGFR G719S/T263P; Ba/F3 EGFR G719S/T263P, result in words) was “good proliferation inhibition activity” and the pIC50 (Ba/F3 EGFR G719S/T263P) was 7.43.
